For 29 molecules, IC50 results are on record in patent US9650380B2, “Difluoromethylene compound” (SATO PHARMACEUTICAL CO., LTD., priority 2012, dated 2017).

In the experiment the target is T1, human URAT1 (Homo sapiens, UniProt Q96S37).
T1 construct: Human URAT1 full-length cDNA was introduced to an expression vector pcDNA5/FRT/V5-His TOPO; expressed in transfected cells
T1 sequence (Q96S37 1-553): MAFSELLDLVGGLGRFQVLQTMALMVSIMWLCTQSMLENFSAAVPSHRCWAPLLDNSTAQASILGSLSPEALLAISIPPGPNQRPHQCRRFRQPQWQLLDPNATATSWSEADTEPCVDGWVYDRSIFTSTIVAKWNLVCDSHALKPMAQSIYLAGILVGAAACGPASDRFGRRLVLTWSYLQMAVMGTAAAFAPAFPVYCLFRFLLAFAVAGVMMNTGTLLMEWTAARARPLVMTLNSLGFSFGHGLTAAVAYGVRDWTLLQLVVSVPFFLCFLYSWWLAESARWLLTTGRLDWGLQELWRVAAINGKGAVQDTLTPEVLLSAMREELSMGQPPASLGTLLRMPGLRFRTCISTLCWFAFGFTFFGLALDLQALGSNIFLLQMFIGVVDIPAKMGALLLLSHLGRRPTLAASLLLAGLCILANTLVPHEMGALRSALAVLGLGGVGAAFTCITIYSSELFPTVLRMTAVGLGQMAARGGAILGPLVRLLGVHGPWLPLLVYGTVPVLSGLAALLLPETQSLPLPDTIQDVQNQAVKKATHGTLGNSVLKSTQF
Briefly: Test for uric acid transport inhibition using human URAT1 expression cells. The format is cell-based. To be noted: human URAT1 stable expression CHO cells; 14C-labeled uric acid 38 μM final; incorporation 5 minutes at room temperature; 100% window defined with benzbromarone 100 μM; read-out: URAT1 inhibitory activity (IC50). The protocol: In this Example, it was evaluated whether the Example compound and the Reference example compound mentioned below has the URAT1 inhibitory activity.
Human URAT1 full-length cDNA was introduced to an expression vector pcDNA5/FRT/V5-His TOPO (registered trademark) (Invitrogen Corporation). The obtained expression plasmid was introduced to Chinese hamster ovary cell (hereinafter referred to as the CHO cell) by the liposome method using Lipofectamine LTX (Invitrogen) and cultured in a selection medium including hygromycin, whereby to prepare human URAT1 stable expression cell.
The human URAT1 expression CHO cell were cultured using D-MEM/F-12 (1:1) mixed medium including 10% bovine fatal serum and hygromycin at 37° C. in the presence of 5% CO2. The cells were seeded onto a 96-well plate (Corning Incorporated) at 0.8×10^5 cells/well, and after 24 hours, the test for uric acid transport inhibition below was performed.
The medium was removed by aspiration, and then the cells were washed once with an assay buffer including 125 mM of sodium gluconate, 4.8 mM of potassium gluconate, 1.2 mM of potassium dihydrogen phosphate, 1.2 mM of magnesium sulfate, 1.3 mM of calcium gluconate and 5.6 mM of glucose, 50 μL assay buffer including the test compound in various concentrations was added, and further 50 μL assay buffer including a radioactive ligand (uric acid labeled with ^14C; 38 μM final concentration) was added, and incorporation reaction was performed at room temperature for 5 minutes. Immediately after the completion of the reaction, the reaction mixture was washed twice with 100 μL ice-cold assay buffer, and 100 μL of 0.1N sodium hydroxide was added. The reaction mixture was stirred to lyse the cells, and 4 mL of Hionic-Fluor (Packard BioScience CO.) was added, and then the radioactivity was measured with a liquid scintillation counter (Beckman Coulter, Inc. and Packard BioScience CO).
The radioactivitiy when each concentration of the test compound was added (uric acid incorporation activity, %) was calculated in which the difference of the radioactivity when the test compound was not added (DMSO added) and the radioactivity when a positive control compound, benzbromarone (a known URAT1 inhibitor) was added in 100 μM, was taken as 100%, and the concentration of the test compound when the uric acid incorporation activity was inhibited to 50% (IC50) was obtained.
For orientation: IC50 means the concentration needed to halve the response being measured. As for `Cc1cccc(Cl)c1Cn1nc(C)c2ccc(C(F)(F)C(=O)O)cc21` [Example 3, [1-(2-chloro-6-methylbenzyl)-3-methyl-1H-indazol-6-yl]difluoroacetic acid], the IC50 stood at 0.026 µM.
Regarding `Cc1nn(Cc2c(Cl)cccc2C2CC2)c2cc(C(F)(F)C(=O)O)ccc12` [Example 12, [1-(2-chloro-6-cyclopropylbenzyl)-3-methyl-1H-indazol-6-yl]difluoroacetic acid], the IC50 is 0.017 µM.
As for `O=C(O)C(F)(F)c1ccc2c(Cl)nn(Cc3c(Cl)cccc3Cl)c2c1` [Example 34, [3-chloro-1-(2,6-dichlorobenzyl)-1H-indazol-6-yl]difluoroacetic acid], the figure is 0.015 µM; as for `O=C(O)C(F)(F)c1ccc2c(C(F)(F)F)nn(Cc3c(Cl)cccc3Cl)c2c1` [Example 36, [1-(2,6-dichlorobenzyl)-3-trifluoromethyl-1H-indazol-6-yl]difluoroacetic acid], 0.107 µM.
As for `Cc1nn(Cc2c(Cl)cccc2C2CC2)c2cc(C(F)(F)C(=O)O)cnc12` [Example 38, [1-(2-chloro-6-cyclopropylbenzyl)-3-methyl-1H-pyrazolo[4,3-b]pyridin-6-yl]difluoroacetic acid], the figure is 0.034 µM.
Under `CCc1nn(Cc2c(F)cccc2C2CC2)c2cc(C(F)(F)C(=O)O)cnc12` [Example 46, [1-(2-cyclopropyl-6-fluorobenzyl)-3-ethyl-1H-pyrazolo[4,3-b]pyridin-6-yl]difluoroacetic acid] stands 0.243 µM.
For `Cc1cn(Cc2c(Cl)cccc2Cl)c2cc(C(F)(F)C(=O)O)ccc12` [Example 49, [1-(2,6-dichlorobenzyl)-3-methyl-1H-indol-6-yl]difluoroacetic acid], the IC50 came out at 0.038 µM.
`Cc1nn(Cc2c(Cl)cccc2Cl)c2cc(C(F)(F)c3nnn[nH]3)ccc12` [Example 50, 1-(2,6-dichlorobenzyl)-6-[difluoro(1H-tetrazol-5-yl)methyl]-3-methyl-1H-indazole]: the IC50 was 0.007 µM.
As for `Cc1cccc(C#N)c1Cn1nc(C)c2ccc(C(F)(F)c3nnn[nH]3)cc21` [Example 71, 2-{6-[difluoro(1H-tetrazol-5-yl)methyl]-3-methyl-1H-indazol-1-ylmethyl}-3-methylbenzonitrile], the figure is 0.006 µM.
As for `Cc1nn(Cc2ccc(C#N)cc2)c2cc(C(F)(F)c3nnn[nH]3)ccc12` [Example 88, 4-{6-[difluoro(1H-tetrazol-5-yl)methyl]-3-methyl-1H-indazol-1-ylmethyl}benzonitrile], the figure is 0.034 µM.
As for `Cc1nn(Cc2c(C#N)ccnc2Cl)c2cc(C(F)(F)c3nnn[nH]3)ccc12` [Example 92, 2-chloro-3-{6-[difluoro(1H-tetrazol-5-yl)methyl]-3-methyl-1H-indazol-1-ylmethyl}isonicotinonitrile], the figure is 0.021 µM; as for `Cc1nn(Cc2cccc3ccncc23)c2cc(C(F)(F)c3nnn[nH]3)ccc12` [Example 94, 8-{6-[difluoro(1H-tetrazol-5-yl)methyl]-3-methyl-1H-indazol-1-ylmethyl}isoquinoline], 0.125 µM.
For `Cc1nn(Cc2c(F)cccc2Cl)c2cc(C(F)(F)c3n[nH]c(=O)o3)ccc12` [Example 101, 5-{[1-(2-chloro-6-fluorobenzyl)-3-methyl-1H-indazol-6-yl]difluoromethyl}-1,3,4-oxadiazol-2(3H)-one], the IC50 turned out to be 0.009 µM.
Under `Cc1nn(S(=O)(=O)c2c(Cl)cccc2Cl)c2cc(C(F)(F)c3nnn[nH]3)ccc12` [Example 102, 1-(2,6-dichlorobenzenesulfonyl)-6-[difluoro(1H-tetrazol-5-yl)methyl]-3-methyl-1H-indazole] stands 0.142 µM; under `Cc1cccc(CC#N)c1Cn1nc(C)c2ccc(C(F)(F)c3nnn[nH]3)cc21` [Example 107, (2-{6-[difluoro(1H-tetrazol-5-yl)methyl]-3-methyl-1H-indazol-1-ylmethyl}-3-methylphenyl)acetonitrile], 0.012 µM; under `Cc1cccc(C#N)c1Cn1nc(C)c2ccc(C(F)(F)c3nnn[nH]3)nc21` [Example 109, 2-{6-[difluoro(1H-tetrazol-5-yl)methyl]-3-methyl-1H-pyrazolo[3,4-b]pyridin-1-ylmethyl}-3-methylbenzonitrile], 0.013 µM.
As for `Cc1nn(Cc2c(Cl)cccc2C2CC2)c2cc(C(=O)O)cnc12` [Reference Example 2, 1-(2-chloro-6-cyclopropylbenzyl)-3-methyl-1H-pyrazolo[4,3-b]pyridine-6-carboxylic acid, reference compound], the figure is 0.053 µM; as for `O=C(O)c1cnc2c(Cl)nn(Cc3c(Cl)cccc3C3CC3)c2c1` [Reference Example 3, 3-chloro-1-(2-chloro-6-cyclopropylbenzyl)-1H-pyrazolo[4,3-b]pyridine-6-carboxylic acid, reference compound], 0.032 µM.
Under `O=C(O)c1cnc2c(C(F)(F)F)nn(Cc3c(Cl)cccc3C3CC3)c2c1` [Reference Example 5, 1-(2-chloro-6-cyclopropylbenzyl)-3-trifluoromethyl-1H-pyrazolo[4,3-b]pyridine-6-carboxylic acid, reference compound] stands 0.013 µM; under `Cc1nn(Cc2c(Cl)cccc2C2CC2)c2cc(CCC(=O)O)ccc12` [Reference Example 8, 3-[1-(2-chloro-6-cyclopropylbenzyl)-3-methyl-1H-indazol-6-yl]propionic acid, reference compound], 0.024 µM; under `Cc1nn(Cc2c(Cl)cccc2Cl)c2cc(C(O)c3nnn[nH]3)ccc12` (centres unmarked) [Reference Example 9, [1-(2,6-dichlorobenzyl)-3-methyl-1H-indazol-6-yl](1H-tetrazol-5-yl)methanol, reference compound], 0.078 µM.
Regarding `O=C(O)Cc1ccc2c(C(F)(F)F)nn(Cc3c(Cl)cccc3Cl)c2c1` [Reference Example 11, [1-(2,6-dichlorobenzyl)-3-trifluoromethyl-1H-indazol-6-yl]acetic acid, reference compound], the IC50 was determined as 0.015 µM.
Under `O=C(O)Cc1ccc2c(Cl)nn(Cc3c(Cl)cccc3Cl)c2c1` [Reference Example 12, [3-chloro-1-(2,6-dichlorobenzyl)-1H-indazol-6-yl]acetic acid, reference compound] stands 0.016 µM; under `Cc1nn(Cc2c(F)cccc2Cl)c2cc(C(F)(F)C(=O)O)ccc12` [example 9, [1-(2-chloro-6-fluorobenzyl)-3-methyl-1H-indazol-6-yl]difluoroacetic acid], 0.04 µM.
Under `Cc1nn(Cc2cccc(Cl)c2Cl)c2cc(C(F)(F)C(=O)O)ccc12` [example 14, [1-(2,3-dichlorobenzyl)-3-methyl-1H-indazol-6-yl]difluoroacetic acid] stands 0.048 µM; under `Cc1nn(Cc2c(F)cccc2C(F)(F)F)c2cc(C(F)(F)C(=O)O)ccc12` [example 22, difluoro[1-(2-fluoro-6-trifluoromethylbenzyl)-3-methyl-1H-indazol-6-yl]acetic acid], 0.052 µM.
As to `Cc1cccc(C#N)c1Cn1nc(C)c2ccc(C(F)(F)C(=O)O)cc21` [example 24, [1-(2-cyano-6-methylbenzyl)-3-methyl-1H-indazol-6-yl]difluoroacetic acid], the concentration for half-maximal inhibition (IC50) is 0.026 µM.
Under `Cc1nn(Cc2c(C#N)cccc2C2CC2)c2cc(C(F)(F)C(=O)O)ccc12` [example 32, [1-(2-cyano-6-cyclopropylbenzyl)-3-methyl-1H-indazol-6-yl]difluoroacetic acid] stands 0.023 µM; under `Cc1nn(Cc2c(C#N)cccc2CO)c2cc(C(F)(F)C(=O)O)ccc12` [example 53, [1-(2-cyano-6-hydroxymethylbenzyl)-3-methyl-1H-indazol-6-yl]difluoroacetic acid], 0.39 µM.
